Results on two compounds are retold here after US20240081326A1, “Use of a Biobased Composition Comprising Ferulated Chitosan as a Pesticide Safener” (FYTEKO SA, priority 2020, published 2024).

SMILES strings stand for the structures.

The subject of this test is Lemna minor. Description: Lemna minor in vitro relative growth rate and survival with herbicide Profoxydim. The format is in vivo. The settings on record: one week; for relative growth rate (RGR) of Lemna minor plants, substance alone: 10 mg/L in Hoagland medium. The procedure: The experiment was carried out in Lemna minor growing under in vitro conditions. A stock culture of Lemna minor was maintained on modified Hoagland medium in a controlled environment. […] An experiment was conducted, using fronds free from any visible chlorosis which were taken from the stock cultures and exposed to diverse treatments. For each treatment, six repetitions with three fronds per repetition as the initial frond number were used. […] The multiplate was covered with a transparent cover to prevent evaporation. The relative growth was calculated after one week of incubation in the described conditions, and the survival rate was evaluated.

With `CCCC(=NOCC(C)Oc1ccc(Cl)cc1)C1=C(O)CC(C2CCCSC2)CC1=O` (stereo not drawn) [Profoxydim], the “relative growth rate (RGR) of Lemna minor plants, substance alone” value is “drastically reduced the RGR”.
For the compound `COc1cc(/C=C/C(=O)O)ccc1O` [ferulic acid], the “relative growth rate (RGR) of Lemna minor plants, substance alone” value is “hindering Lemna minor growth”. For the setting “10 mg/L with 10 mg/L Profoxydim”, the “protective effect on relative growth rate in combination with the herbicide Profoxydim” value is listed as “Neither chitosan nor ferulic acid in combination with the herbicide showed this protective effect”.
